Consider three compounds from patent publication US5162328A, “N-[3-[2-(1H-imidazol-1-yl)ethoxy]phenyl]-4-(2-thienyl)-2-pyrimidinamine and pharmacologically acceptable salts” (American Cyanamid Company, priority 1991, dated 1992).

Several values for one entry are separate records, joined by “and”; a condition that tells them apart may be missing. Equal values may be shown once.

Assay [1] concerns immunologically stimulated human basophils. In words: Inhibition of histamine release from immunologically stimulated human basophils. It counts as cell-based. To be noted: for IC50: Homo sapiens. An excerpt:
The bronchospasm of allergic asthma is a consequence of the release of mediators, such as histamine and slow-reacting substances from mast cells. The role of mediator release in the induction of an asthmatic attack has been fully reviewed and documented; see […]. and Austen, K. F., Bronchial Asthma Mechanisms and Therapeutics, E. B. Weiss, Editor, Little, Brown and Company, Boston, 163, (1976); Lichtenstein, L. M., Asthma-Physiology, Immunopharmacology and Treatment, Second International Symposium, L. M. Lichtenstein and K. F. Austen, Editors, Academic Press, New York, 51, (1979); and Bell, S. C., et al., Annular Reports in Medicinal Chemistry, 14, 51, H. J. Hess, Editor, Academic Press, New York, (1979). The novel compounds of this invention have been tested by the procedure of Lichtenstein, L. M. and Osler, A. G., J. Exp. […] Dissolve 140.3 g of sodium chloride, 7.45 g of Trizma-Tris Pre-Set, Reagent Grade, pH 7.6 at 25° C. (Sigma Chemical Co.) in sufficient water to give a final volume of 2 liters. (Sigma chemical Co.) (30 mg/ml) Made to 0.075M and 0.5M respectively, with calcium chloride dihydrate and magnesium chloride hexahydrate. A 10 ml portion of 10× Tris Buffer and 1.0 ml of human albumin are diluted to 100 ml with water. A 10 ml portion of 10× Tris Buffer, 1.0 ml of human albumin, 0.8 ml of calcium stock and 0.2 ml of magnesium stock are diluted to 100 ml with water. Behring Diagnostics (Generally used at 10 μg protein/ml final concentration). Strength 1:100 (w:v) allergenic extract, Hollister-Stier Labs. Generally this is diluted 1:1000 to 1:10,000 (considering the vial as stock). Interdermal solutions or intramuscular preparations for hyposensitization, Hollister-Stier Labs. The final concentrations used are on the order of 1 PNU/ml. Using four 20 ml heparinized tubes, […] of blood are withdrawn from subjects with known histamine release to anti-IgE, ragweed antigen or other specific allergen. These 80 ml of blood are mixed with 20 ml of saline containing 0.6 g of dextrose and 1.2 g of dextran. The blood is allowed to sediment at room temperature in two 50 ml polycarbonate centrifuge tubes until a sharp interface develops between the red cells and plasma (60-90 minutes). The plasma, containing the leukocytes, (top) layer from each tube, is withdrawn by pipet and transferred to 50 ml polycarbonate tubes. The plasma is centrifuged for 8 minutes at 110× G at 4° C. The supernatant is carefully poured off as completely as possible and the cell button is resuspended in 2-3 ml of Tris-A buffer using a siliconized Pasteur pipet. The resuspension is accomplished by drawing the liquid gently in an out of the pipet, with the tip below the liquid until an even suspension of cells is obtained. […]

Assay [2] concerns passive cutaneous anaphylaxis lesions in the rat. The experiment in a line: Rat Passive Cutaneous Anaphylaxis Assay (PCA). Particulars: for Lesion Area (Low IgE) / Lesion Area (High IgE): mean ± SD. In kind it is in vivo, rat (male Wistar strain). The procedure: Solutions made by dissolving 0.50 g in 100 ml of normal saline. Mouse monoclonal IgE (ICN Biochemicals) clone SPE-7 directed against DNP is subdivided into 50 ul aliquots and stored at -70° C. DNP-ovalbumin is made by reacting DNP sulfonic acid with ovalbumin dissolved in saline overnight at room temperature. The resulting solution is dialyzed extensively at 4 C to remove unreacted DNPsulfonic acid and stored as 1 mL aliquots of 100 mg/ml at -70° C. Male Wistar strain rats, certified viral free, weighing 250-300 g are obtained from Hilltop Laboratory Animals and housed, in accordance with AALAC standards, on site for at least one week before use. Forty-eight hours before challenge the rats are shaved on the dorsal surfaces and returned to the cages. Twenty-four hours before challenge the rats are given intradermal injections of 0.1 mL, one on each flank, of saline containing IgE at concentrations ranging from 1000 to 250 ng/mL. These injections give a local dose of 100 to 25 ng IgE. The IgE binds to specific receptors on mast cells in the skin. […] To the Evan's blue dye is added sufficient DNP-ovalbumin to make a 1 mg/ml solution. This allergen containing dye is injected intravenously via a tail vein into the rats at 10 ml/Kg. The Evans' blue binds to plasma albumin and remains in the vascular space under conditions of normal capillary permeability. The allergen, which can diffuse into the extravascular space, binds to the IgE on the surface of the cutaneous mast cells and initiates the immediate hypersensitivity response which leads to the release of histamine by intracellular granules of the mast cell. The histamine causes an increase in capillary permeability which allows plasma proteins including the dye tagged albumin to diffuse into the extracellular space resulting in a blue spot in the skin. The size of the lesion is proportional to the amounts of mediators released. This process reaches an optimum in 30 minutes. Thirty minutes after challenge the rats are euthanized by CO2. The skin is reflected from the back and the lesion areas estimated as the product of the largest diameter of the bluespot and the diameter perpendicular to it. A compound which is a mediator release inhibitor will reduce the spot area. The effectiveness of the compounds is determined by Analysis of Variance of the lesion areas grouped by IgE dose and compound. Compounds are considered active at the P<0.05 level. Table II contains the results of the experiments expressed as the areas of the lesions in mm^2. The control lesions for these experiments are also listed. Because more than one compound at a time is tested, some of the control values are repeated in the table. Table III contains the data expressed as a % of the appropriate control.

The mark [3] stands for this setting: 0.5 mg/kg PO 2 hrs, IgE 50 ng/site.
Setting [4] is: compared with the two compounds of U.S. Pat. No. 4,788,195.

One may read the IC50 as the midpoint of a concentration-inhibition curve. Low values mean inhibition by little substance, high ones a need for much substance.

With `Cc1cc(Nc2nccc(-c3ccncc3)n2)ccc1N.Cl.Cl` [Compound 2, 2-methyl-N^4-[4-(4-pyridinyl)-2-pyrimidinyl]-1,4-benzenediamine dihydrochloride, reference compound], inhibition in assay [1] was half-maximal at 900 nM (IC50). Besides, the “Lesion Area (Low IgE)” value in assay [2] (0.5 mg/kg PO 2 hrs, IgE 25 ng/site, dihydrochloride) is 135 ± 20 mm^2 and 97 ± 7 mm^2 and 105 ± 12 mm^2; in assay [2] (1.0 mg/kg PO 2 hrs, IgE 25 ng/site), 10 ± 15 mm^2. In addition, the “Lesion Area (High IgE)” value was 157 ± 15 mm^2 in assay [2] (setting [3]); 217 ± 35 mm^2 and 362 ± 62 mm^2 in assay [2] (0.5 mg/kg PO 2 hrs, IgE 100 ng/site, dihydrochloride); 123 ± 16 mm^2 in assay [2] (1.0 mg/kg PO 2 hrs, IgE 50 ng/site). Besides, the “% CONTROL (lesion area)” value is 113.6% and 74.6% and 81% in assay [2] (0.5 mg/kg PO @ 2 hrs, dihydrochloride); 57.9% in assay [2] (1 mg/kg PO @ 2 hrs).

On to `c1cc(Nc2nccc(-c3cccs3)n2)cc(OCCn2ccnc2)c1` [N-[3-[2-(1H-imidazol-1-yl)ethoxy]phenyl]-4-(2-thienyl)-2-pyrimidinamine], for which, in assay [1] (setting [4]), the “activity in basophil histamine release assay (in words)” value is “essentially equivalent high activity”. Further, the “activity in rat PCA test (in words)” value in assay [2] (setting [4]) is reported as “essentially equivalent high activity”.

For the compound `CCN(CC)CCOc1ccc(Nc2nccc(-c3ccncc3)n2)cc1.Cl.Cl` [Compound 3, N-[4-[2-(diethylamino)ethoxy]phenyl]-4-(4-pyridinyl)-2-pyrimidinamine dihydrochloride, reference compound], the IC50 in assay [1] was 200 ± 20 nM. Also, the “Lesion Area (Low IgE)” value in assay [2] (0.25 mg/kg PO 2 hrs, IgE 33 ng/site) is 108 ± 26 mm^2; in assay [2] (0.5 mg/kg PO 2 hrs, IgE 33 ng/site), 68 ± 44 mm^2; in assay [2] (2.5 mg/kg PO 2 hrs, IgE 25 ng/site) it was 54 ± 38 mm^2. The “Lesion Area (High IgE)” value worked out at 215 ± 24 mm^2 in assay [2] (0.25 mg/kg PO 2 hrs, IgE 50 ng/site); 149 ± 22 mm^2 in assay [2] (setting [3]); 105 ± 47 mm^2 in assay [2] (2.5 mg/kg PO 2 hrs, IgE 100 ng/site). For the same compound, the “% CONTROL (lesion area)” value in assay [2] (0.25 mg/kg PO @ 2 hrs) came to 45.1%; in assay [2] (0.5 mg/kg PO @ 2 hrs), 28.6%; in assay [2] (2.5 mg/kg PO @ 2 hrs), 33.7%.
